Results as given in patent publication US6737383B1, “Herbicidal oxadiazolidines” (priority 1999, dated 2004).

Legend:
crabgrass = assay: Test B pre/postemergence crabgrass; type: in vivo, Digitaria sanguinalis
Method in brief: (§1)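 Response is a visual 0-to-10 score relative to untreated plants, where 0 means no effect and 10 means complete control, taken twelve to sixteen days after application. Treatments went onto soil at planting and onto foliage of 1- to 4-leaf plants, using a surfactant-containing non-phytotoxic solvent.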

duck salad = assay: Test B flood test duck salad; type: in vivo, Heteranthera limosa
Method in brief: (§2)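 Plants were grown to the 2-leaf stage before treatment with test chemical, then held in a greenhouse for twelve to sixteen days. Injury was visually rated against untreated controls on a 0–10 scale, where 0 is no effect and 10 is complete control.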

wheat = assay: Test B pre/postemergence wheat; type: in vivo, Triticum aestivum; settings: for Plant response rating, Wheat: scale of 0 to 10 where 0 is no effect and 10 is complete control
Method in brief: as §1

corn = assay: Test B pre/postemergence corn; type: in vivo, Zea mays
Method in brief: as §1

cocklebur = assay: Test B pre/postemergence cocklebur; type: in vivo, Xanthium strumarium
Method in brief: as §1

rice = assay: Test B flood test rice; type: in vivo, Oryza sativa
Method in brief: as §2

sugar beet = assay: Test B pre/postemergence sugar beet; type: in vivo, Beta vulgaris; settings: for Plant response rating, Sugarbeets: scale of 0 to 10 where 0 is no effect and 10 is complete control
Method in brief: as §1

purple nutsedge = assay: Test B pre/postemergence purple nutsedge; type: in vivo, Cyperus rotundus; settings: for Plant response rating, Nutsedge: scale of 0 to 10 where 0 is no effect and 10 is complete control
Method in brief: as §1

wild oat = assay: Test B pre/postemergence wild oat; type: in vivo, Avena fatua; settings: for Plant response rating, Wild oats: scale of 0 to 10 where 0 is no effect and 10 is complete control
Method in brief: as §1

surinam grass = assay: Test B pre/postemergence surinam grass; type: in vivo, Brachiaria decumbens
Method in brief: as §1

soybean = assay: Test B pre/postemergence soybean; type: in vivo, Glycine max; settings: for Plant response rating, Soybean: scale of 0 to 10 where 0 is no effect and 10 is complete control
Method in brief: as §1

rape = assay: Test B pre/postemergence rape; type: in vivo, Brassica napus; settings: for Plant response rating, Rape: scale of 0 to 10 where 0 is no effect and 10 is complete control
Method in brief: as §1

bamyardgrass = assay: Test B flood test barnyardgrass; type: in vivo, Echinochloa crus-galli
Method in brief: as §2

velvetleaf = assay: Test B pre/postemergence velvetleaf; type: in vivo, Abutilon theophrasti; settings: for Plant response rating, Velvetleaf: scale of 0 to 10 where 0 is no effect and 10 is complete control
Method in brief: as §1

pigweed = assay: Test B pre/postemergence pigweed; type: in vivo, Amaranthus retroflexus; settings: for Plant response rating, Redroot pigweed: scale of 0 to 10 where 0 is no effect and 10 is complete control
Method in brief: as §1

blackgrass = assay: Test B pre/postemergence blackgrass; type: in vivo, Alopecurus myosuroides
Method in brief: as §1

giant foxtail = assay: Test B pre/postemergence giant foxtail; type: in vivo, Setaria faberii
Method in brief: as §1

smallflower flatsedge = assay: Test B flood test smallflower flatsedge; type: in vivo, Cyperus difformis
Method in brief: as §2

morningglory = assay: Test B pre/postemergence morningglory; type: in vivo, Ipomoea hederacea; settings: for Plant response rating, Morningglory: scale of 0 to 10 where 0 is no effect and 10 is complete control
Method in brief: as §1

[1] = Postemergence, Rate 250 g/ha, scale 0 to 10
[2] = Postemergence, Rate 500 g/ha, scale of 0 to 10 where 0 is no effect and 10 is complete control
[3] = Preemergence, Rate 125 g/ha, scale of 0 to 10 where 0 is no effect and 10 is complete control
[4] = Preemergence, Rate 250 g/ha, scale 0 to 10, 0 is no effect, 10 is complete control
[5] = Preemergence, Rate 500 g/ha, scale 0 to 10, 0 is no effect, 10 is complete control
[6] = Rate 62 g/ha, Postemergence, scale 0 to 10 (0 no effect, 10 complete control)
[7] = Rate 125 g/ha, Postemergence, scale 0 to 10, 0 is no effect, 10 is complete control
[8] = Rate 62 g/ha, flood test species, Pre-emergence, visual evaluation after twelve to sixteen days
[9] = Rate 125 g/ha, under heading Pre-emergence, flood test species, visual evaluation after twelve to sixteen days
[10] = Rate 250 g/ha, Pre-emergence (flood test species), scale 0 to 10, 0 is no effect, 10 is complete control
[11] = Rate 500 g/ha, Pre-emergence, flood test species, scale 0 to 10 (0 no effect, 10 complete control)
[12] = Preemergence, Rate 62 g/ha, scale of 0 to 10 where 0 is no effect and 10 is complete control

With CC(=O)NCn1c(=O)on(C(=O)N(c2ccc(F)cc2)C(C)C)c1=O [Compound 473] the “Crabgrass plant response rating” value (crabgrass; [1]) was 3, the “Crabgrass plant response rating” value (crabgrass; [2]) was 8 and the “Plant response rating, Crabgrass” value (crabgrass; [3]) was 2. The “Crabgrass plant response rating” value (crabgrass; [4]) was 4, the “Crabgrass plant response rating” value (crabgrass; [5]) was 7 and the “Crabgrass plant response rating” value (crabgrass; [6]) was 1. For the same molecule, the “Crabgrass plant response rating” value (crabgrass; [7]) was 2, the “Plant response rating, Ducksalad (0 to 10 scale, 0 is no effect, 10 is complete control)” value (duck salad; [8]) was 0 and the “Ducksalad plant response rating (0 to 10 scale, 0 is no effect, 10 is complete control)” value (duck salad; [9]) was 0. The “Ducksalad plant response rating” value (duck salad; [10]) was 0, the “Ducksalad plant response rating” value (duck salad; [11]) was 0 and the “Wheat plant response rating” value (wheat; [1]) was 0. For the same molecule, the “Plant response rating, Wheat” value (wheat; Preemergence, Rate 62 g/ha) was 0, the “Plant response rating, Wheat” value (wheat; Preemergence, Rate 125 g/ha) was 0 and the “Wheat plant response rating” value (wheat; [4]) was 0. The “Wheat plant response rating” value (wheat; [5]) was 0, the “Wheat plant response rating” value (wheat; [6]) was 0 and the “Wheat plant response rating” value (wheat; [7]) was 0. The “Corn plant response rating” value (corn; [1]) was 0, the “Corn plant response rating” value (corn; [2]) was 0 and the “Plant response rating, Corn” value (corn; [12]) was 0. The “Plant response rating, Corn” value (corn; [3]) was 0, the “Corn plant response rating” value (corn; [4]) was 0 and the “Corn plant response rating” value (corn; [5]) was 0. For the same molecule, the “Corn plant response rating” value (corn; [6]) was 0, the “Corn plant response rating” value (corn; [7]) was 0 and the “Cocklebur plant response rating” value (cocklebur; [1]) was 0. For the same molecule, the “Cocklebur plant response rating” value (cocklebur; [2]) was 0, the “Plant response rating, Cocklebur” value (cocklebur; [12]) was 0 and the “Plant response rating, Cocklebur” value (cocklebur; [3]) was 0. The “Cocklebur plant response rating” value (cocklebur; [5]) was 0, the “Cocklebur plant response rating” value (cocklebur; [6]) was 0 and the “Cocklebur plant response rating” value (cocklebur; [7]) was 0. The “Plant response rating, Rice (0 to 10 scale, 0 is no effect, 10 is complete control)” value (rice; [8]) was 0, the “Rice plant response rating (0 to 10 scale, 0 is no effect, 10 is complete control)” value (rice; [9]) was 0 and the “Rice plant response rating” value (rice; [10]) was 0. The “Rice plant response rating” value (rice; [11]) was 0, the “Sugarbeets plant response rating” value (sugar beet; [1]) was 0 and the “Plant response rating, Sugarbeets” value (sugar beet; Preemergence, Rate 62 g/ha) was 0. For the same molecule, the “Plant response rating, Sugarbeets” value (sugar beet; Preemergence, Rate 125 g/ha) was 0, the “Sugarbeets plant response rating” value (sugar beet; [4]) was 0 and the “Sugarbeets plant response rating” value (sugar beet; [5]) was 0. For the same molecule, the “Sugarbeets plant response rating” value (sugar beet; [6]) was 0, the “Sugarbeets plant response rating” value (sugar beet; [7]) was 0 and the “Nutsedge plant response rating” value (purple nutsedge; [1]) was 0. For the same molecule, the “Plant response rating, Nutsedge” value (purple nutsedge; Preemergence, Rate 62 g/ha) was 0, the “Plant response rating, Nutsedge” value (purple nutsedge; Preemergence, Rate 125 g/ha) was 0 and the “Nutsedge plant response rating” value (purple nutsedge; [4]) was 0. The “Nutsedge plant response rating” value (purple nutsedge; [6]) was 0, the “Nutsedge plant response rating” value (purple nutsedge; [7]) was 0 and the “Wild oats plant response rating” value (wild oat; [1]) was 0. For the same molecule, the “Plant response rating, Wild oats” value (wild oat; Preemergence, Rate 62 g/ha) was 0, the “Plant response rating, Wild oats” value (wild oat; Preemergence, Rate 125 g/ha) was 0 and the “Wild oats plant response rating” value (wild oat; [4]) was 0. For the same molecule, the “Wild oats plant response rating” value (wild oat; [5]) was 0, the “Wild oats plant response rating” value (wild oat; [6]) was 0 and the “Wild oats plant response rating” value (wild oat; [7]) was 0. The “B. signalgrass plant response rating” value (surinam grass; Postemergence, Rate 250 g/ha, scale 0 to 10, 0 no effect, 10 complete control) was 0, the “B. signalgrass plant response rating” value (surinam grass; [2]) was 0 and the “Plant response rating, B. signalgrass” value (surinam grass; [12]) was 0. For the same molecule, the “Plant response rating, B. signalgrass” value (surinam grass; [3]) was 0, the “B. signalgrass plant response rating” value (surinam grass; [4]) was 0 and the “B. signalgrass plant response rating” value (surinam grass; [5]) was 0. The “B. signalgrass plant response rating” value (surinam grass; [6]) was 0, the “B. signalgrass plant response rating” value (surinam grass; [7]) was 0 and the “Soybean plant response rating” value (soybean; [1]) was 1. The “Plant response rating, Soybean” value (soybean; Preemergence, Rate 62 g/ha) was 0, the “Plant response rating, Soybean” value (soybean; Preemergence, Rate 125 g/ha) was 0 and the “Soybean plant response rating” value (soybean; [4]) was 0. For the same molecule, the “Soybean plant response rating” value (soybean; [5]) was 0, the “Soybean plant response rating” value (soybean; [6]) was 1 and the “Soybean plant response rating” value (soybean; [7]) was 1. For the same molecule, the “Rape plant response rating” value (rape; [1]) was 0, the “Plant response rating, Rape” value (rape; Preemergence, Rate 62 g/ha) was 0 and the “Plant response rating, Rape” value (rape; Preemergence, Rate 125 g/ha) was 0. For the same molecule, the “Rape plant response rating” value (rape; [4]) was 0, the “Rape plant response rating” value (rape; [5]) was 0 and the “Rape plant response rating” value (rape; [6]) was 0. The “Rape plant response rating” value (rape; [7]) was 0, the “Plant response rating, Barnyardgrass (0 to 10 scale, 0 is no effect, 10 is complete control)” value (bamyardgrass; [8]) was 0 and the “Barnyardgrass plant response rating (0 to 10 scale, 0 is no effect, 10 is complete control)” value (bamyardgrass; [9]) was 0. The “Barnyardgrass plant response rating” value (bamyardgrass; [10]) was 0, the “Barnyardgrass plant response rating” value (bamyardgrass; [11]) was 0 and the “Velvetleaf plant response rating” value (velvetleaf; [1]) was 0. For the same molecule, the “Plant response rating, Velvetleaf” value (velvetleaf; Preemergence, Rate 62 g/ha) was 0, the “Plant response rating, Velvetleaf” value (velvetleaf; Preemergence, Rate 125 g/ha) was 0 and the “Velvetleaf plant response rating” value (velvetleaf; [4]) was 0. For the same molecule, the “Velvetleaf plant response rating” value (velvetleaf; [5]) was 0, the “Velvetleaf plant response rating” value (velvetleaf; [6]) was 0 and the “Velvetleaf plant response rating” value (velvetleaf; [7]) was 0. The “Redroot pigweed plant response rating” value (pigweed; [1]) was 0, the “Plant response rating, Redroot pigweed” value (pigweed; Preemergence, Rate 62 g/ha) was 2 and the “Plant response rating, Redroot pigweed” value (pigweed; Preemergence, Rate 125 g/ha) was 10. The “Redroot pigweed plant response rating” value (pigweed; [4]) was 10, the “Redroot pigweed plant response rating” value (pigweed; [5]) was 10 and the “Redroot pigweed plant response rating” value (pigweed; [6]) was 0. The “Redroot pigweed plant response rating” value (pigweed; [7]) was 0, the “Blackgrass plant response rating” value (blackgrass; [1]) was 0 and the “Blackgrass plant response rating” value (blackgrass; [2]) was 0. For the same molecule, the “Plant response rating, Blackgrass” value (blackgrass; [12]) was 0, the “Plant response rating, Blackgrass” value (blackgrass; [3]) was 0 and the “Blackgrass plant response rating” value (blackgrass; [4]) was 0. The “Blackgrass plant response rating” value (blackgrass; [5]) was 3, the “Blackgrass plant response rating” value (blackgrass; [6]) was 0 and the “Blackgrass plant response rating” value (blackgrass; [7]) was 0. The “Giant foxtail plant response rating” value (giant foxtail; [1]) was 6, the “Giant foxtail plant response rating” value (giant foxtail; [2]) was 7 and the “Plant response rating, Giant foxtail” value (giant foxtail; [12]) was 2. For the same molecule, the “Plant response rating, Giant foxtail” value (giant foxtail; [3]) was 3, the “Giant foxtail plant response rating” value (giant foxtail; [4]) was 4 and the “Giant foxtail plant response rating” value (giant foxtail; [5]) was 7. The “Giant foxtail plant response rating” value (giant foxtail; [6]) was 1, the “Giant foxtail plant response rating” value (giant foxtail; [7]) was 2 and the “Plant response rating, S. Flatsedge (0 to 10 scale, 0 is no effect, 10 is complete control)” value (smallflower flatsedge; [8]) was 0. The “S. Flatsedge plant response rating (0 to 10 scale, 0 is no effect, 10 is complete control)” value (smallflower flatsedge; [9]) was 0, the “S. Flatsedge plant response rating” value (smallflower flatsedge; [10]) was 0 and the “S. Flatsedge plant response rating” value (smallflower flatsedge; [11]) was 0. For the same molecule, the “Morningglory plant response rating” value (morningglory; [1]) was 2, the “Plant response rating, Morningglory” value (morningglory; Preemergence, Rate 62 g/ha) was 0 and the “Plant response rating, Morningglory” value (morningglory; Preemergence, Rate 125 g/ha) was 0. For the same molecule, the “Morningglory plant response rating” value (morningglory; [4]) was 0, the “Morningglory plant response rating” value (morningglory; [5]) was 0 and the “Morningglory plant response rating” value (morningglory; [6]) was 0. For the same molecule, the “Morningglory plant response rating” value (morningglory; [7]) was 1.
